Assay results taken from the NIST ThermoML archive (doi:10.1021/je800224k).

CCn1cc[n+](C)c1.F[P-](F)(F)(F)(F)F [1-ethyl-3-methylimidazolium hexafluorophosphate]
Conditions	mass density [kg/m3]
312.8 K, 10000 kPa, Crystal, Bellows volumetry	1562
312.8 K, 20000 kPa, Crystal, Bellows volumetry	1565
312.8 K, 30000 kPa, Crystal, Bellows volumetry	1569
312.8 K, 40000 kPa, Crystal, Bellows volumetry	1572
312.8 K, 50000 kPa, Crystal, Bellows volumetry	1576
312.8 K, 60000 kPa, Crystal, Bellows volumetry	1579
312.8 K, 70000 kPa, Crystal, Bellows volumetry	1582
312.8 K, 80000 kPa, Crystal, Bellows volumetry	1585
312.8 K, 90000 kPa, Crystal, Bellows volumetry	1588
312.8 K, 100000 kPa, Crystal, Bellows volumetry	1591
312.8 K, 110000 kPa, Crystal, Bellows volumetry	1594
312.8 K, 120000 kPa, Crystal, Bellows volumetry	1597
312.8 K, 130000 kPa, Crystal, Bellows volumetry	1600
312.8 K, 140000 kPa, Crystal, Bellows volumetry	1603
312.8 K, 150000 kPa, Crystal, Bellows volumetry	1606
312.8 K, 160000 kPa, Crystal, Bellows volumetry	1609
312.8 K, 170000 kPa, Crystal, Bellows volumetry	1612
312.8 K, 180000 kPa, Crystal, Bellows volumetry	1615
312.8 K, 190000 kPa, Crystal, Bellows volumetry	1617
312.8 K, 200000 kPa, Crystal, Bellows volumetry	1620
332.7 K, 10000 kPa, Crystal, Bellows volumetry	1546
332.7 K, 20000 kPa, Crystal, Bellows volumetry	1550
332.7 K, 30000 kPa, Crystal, Bellows volumetry	1554
332.7 K, 40000 kPa, Crystal, Bellows volumetry	1557
332.7 K, 50000 kPa, Crystal, Bellows volumetry	1561
332.7 K, 60000 kPa, Crystal, Bellows volumetry	1564
332.7 K, 70000 kPa, Crystal, Bellows volumetry	1567
332.7 K, 80000 kPa, Crystal, Bellows volumetry	1571
332.7 K, 90000 kPa, Crystal, Bellows volumetry	1574
332.7 K, 100000 kPa, Crystal, Bellows volumetry	1577
332.7 K, 110000 kPa, Crystal, Bellows volumetry	1581
332.7 K, 120000 kPa, Crystal, Bellows volumetry	1584
332.7 K, 130000 kPa, Crystal, Bellows volumetry	1587
332.7 K, 140000 kPa, Crystal, Bellows volumetry	1590
332.7 K, 150000 kPa, Crystal, Bellows volumetry	1593
332.7 K, 160000 kPa, Crystal, Bellows volumetry	1596
332.7 K, 170000 kPa, Crystal, Bellows volumetry	1599
332.7 K, 180000 kPa, Crystal, Bellows volumetry	1602
332.7 K, 190000 kPa, Crystal, Bellows volumetry	1605
332.7 K, 200000 kPa, Crystal, Bellows volumetry	1608
352.7 K, 10000 kPa, Liquid, Bellows volumetry	1428
352.7 K, 20000 kPa, Liquid, Bellows volumetry	1434
352.7 K, 30000 kPa, Liquid, Bellows volumetry	1440
352.7 K, 40000 kPa, Liquid, Bellows volumetry	1446
352.7 K, 50000 kPa, Liquid, Bellows volumetry	1451
352.7 K, 60000 kPa, Liquid, Bellows volumetry	1456
352.7 K, 70000 kPa, Liquid, Bellows volumetry	1461
352.7 K, 80000 kPa, Liquid, Bellows volumetry	1466
352.7 K, 90000 kPa, Liquid, Bellows volumetry	1471
352.7 K, 100000 kPa, Crystal, Bellows volumetry	1562
352.7 K, 110000 kPa, Crystal, Bellows volumetry	1566
352.7 K, 120000 kPa, Crystal, Bellows volumetry	1570
352.7 K, 130000 kPa, Crystal, Bellows volumetry	1573
352.7 K, 140000 kPa, Crystal, Bellows volumetry	1576
352.7 K, 150000 kPa, Crystal, Bellows volumetry	1580
352.7 K, 160000 kPa, Crystal, Bellows volumetry	1583
352.7 K, 170000 kPa, Crystal, Bellows volumetry	1586
352.7 K, 180000 kPa, Crystal, Bellows volumetry	1589
352.7 K, 190000 kPa, Crystal, Bellows volumetry	1592
352.7 K, 200000 kPa, Crystal, Bellows volumetry	1595
353.15 K, 101.33 kPa, Liquid, Vibrating tube method	1421.8
372.8 K, 10000 kPa, Liquid, Bellows volumetry	1410
372.8 K, 20000 kPa, Liquid, Bellows volumetry	1416
372.8 K, 30000 kPa, Liquid, Bellows volumetry	1423
372.8 K, 40000 kPa, Liquid, Bellows volumetry	1428
372.8 K, 50000 kPa, Liquid, Bellows volumetry	1434
372.8 K, 60000 kPa, Liquid, Bellows volumetry	1439
372.8 K, 70000 kPa, Liquid, Bellows volumetry	1445
372.8 K, 80000 kPa, Liquid, Bellows volumetry	1450
372.8 K, 90000 kPa, Liquid, Bellows volumetry	1455
372.8 K, 100000 kPa, Liquid, Bellows volumetry	1460
372.8 K, 110000 kPa, Liquid, Bellows volumetry	1465
372.8 K, 120000 kPa, Liquid, Bellows volumetry	1470
372.8 K, 130000 kPa, Liquid, Bellows volumetry	1474
372.8 K, 140000 kPa, Liquid, Bellows volumetry	1479
372.8 K, 150000 kPa, Liquid, Bellows volumetry	1483
372.8 K, 160000 kPa, Liquid, Bellows volumetry	1488
372.8 K, 170000 kPa, Liquid, Bellows volumetry	1492
372.8 K, 180000 kPa, Liquid, Bellows volumetry	1497
372.8 K, 190000 kPa, Liquid, Bellows volumetry	1501
372.8 K, 200000 kPa, Liquid, Bellows volumetry	1505
373.15 K, 101.33 kPa, Liquid, Vibrating tube method	1404.9
392.9 K, 10000 kPa, Liquid, Bellows volumetry	1393
392.9 K, 20000 kPa, Liquid, Bellows volumetry	1400
392.9 K, 30000 kPa, Liquid, Bellows volumetry	1406
392.9 K, 40000 kPa, Liquid, Bellows volumetry	1412
392.9 K, 50000 kPa, Liquid, Bellows volumetry	1418
392.9 K, 60000 kPa, Liquid, Bellows volumetry	1424
392.9 K, 70000 kPa, Liquid, Bellows volumetry	1429
392.9 K, 80000 kPa, Liquid, Bellows volumetry	1435
392.9 K, 90000 kPa, Liquid, Bellows volumetry	1440
392.9 K, 100000 kPa, Liquid, Bellows volumetry	1445
392.9 K, 110000 kPa, Liquid, Bellows volumetry	1450
392.9 K, 120000 kPa, Liquid, Bellows volumetry	1455
392.9 K, 130000 kPa, Liquid, Bellows volumetry	1460
392.9 K, 140000 kPa, Liquid, Bellows volumetry	1464
392.9 K, 150000 kPa, Liquid, Bellows volumetry	1469
392.9 K, 160000 kPa, Liquid, Bellows volumetry	1474
392.9 K, 170000 kPa, Liquid, Bellows volumetry	1478
392.9 K, 180000 kPa, Liquid, Bellows volumetry	1483
392.9 K, 190000 kPa, Liquid, Bellows volumetry	1487
392.9 K, 200000 kPa, Liquid, Bellows volumetry	1491
412.9 K, 10000 kPa, Liquid, Bellows volumetry	1377
412.9 K, 20000 kPa, Liquid, Bellows volumetry	1384
412.9 K, 30000 kPa, Liquid, Bellows volumetry	1390
412.9 K, 40000 kPa, Liquid, Bellows volumetry	1397
412.9 K, 50000 kPa, Liquid, Bellows volumetry	1403
412.9 K, 60000 kPa, Liquid, Bellows volumetry	1408
412.9 K, 70000 kPa, Liquid, Bellows volumetry	1414
412.9 K, 80000 kPa, Liquid, Bellows volumetry	1420
412.9 K, 90000 kPa, Liquid, Bellows volumetry	1425
412.9 K, 100000 kPa, Liquid, Bellows volumetry	1431
412.9 K, 110000 kPa, Liquid, Bellows volumetry	1436
412.9 K, 120000 kPa, Liquid, Bellows volumetry	1441
412.9 K, 130000 kPa, Liquid, Bellows volumetry	1446
412.9 K, 140000 kPa, Liquid, Bellows volumetry	1451
412.9 K, 150000 kPa, Liquid, Bellows volumetry	1456
412.9 K, 160000 kPa, Liquid, Bellows volumetry	1460
412.9 K, 170000 kPa, Liquid, Bellows volumetry	1465
412.9 K, 180000 kPa, Liquid, Bellows volumetry	1469
412.9 K, 190000 kPa, Liquid, Bellows volumetry	1474
412.9 K, 200000 kPa, Liquid, Bellows volumetry	1478
432.6 K, 10000 kPa, Liquid, Bellows volumetry	1360
432.6 K, 20000 kPa, Liquid, Bellows volumetry	1367
432.6 K, 30000 kPa, Liquid, Bellows volumetry	1374
432.6 K, 40000 kPa, Liquid, Bellows volumetry	1381
432.6 K, 50000 kPa, Liquid, Bellows volumetry	1387
432.6 K, 60000 kPa, Liquid, Bellows volumetry	1393
432.6 K, 70000 kPa, Liquid, Bellows volumetry	1399
432.6 K, 80000 kPa, Liquid, Bellows volumetry	1405
432.6 K, 90000 kPa, Liquid, Bellows volumetry	1411
432.6 K, 100000 kPa, Liquid, Bellows volumetry	1417
432.6 K, 110000 kPa, Liquid, Bellows volumetry	1422
432.6 K, 120000 kPa, Liquid, Bellows volumetry	1427
432.6 K, 130000 kPa, Liquid, Bellows volumetry	1432
432.6 K, 140000 kPa, Liquid, Bellows volumetry	1437
432.6 K, 150000 kPa, Liquid, Bellows volumetry	1442
432.6 K, 160000 kPa, Liquid, Bellows volumetry	1447
432.6 K, 170000 kPa, Liquid, Bellows volumetry	1451
432.6 K, 180000 kPa, Liquid, Bellows volumetry	1456
432.6 K, 190000 kPa, Liquid, Bellows volumetry	1461
432.6 K, 200000 kPa, Liquid, Bellows volumetry	1465
452.5 K, 10000 kPa, Liquid, Bellows volumetry	1344
452.5 K, 20000 kPa, Liquid, Bellows volumetry	1351
452.5 K, 30000 kPa, Liquid, Bellows volumetry	1359
452.5 K, 40000 kPa, Liquid, Bellows volumetry	1366
452.5 K, 50000 kPa, Liquid, Bellows volumetry	1372
452.5 K, 60000 kPa, Liquid, Bellows volumetry	1379
452.5 K, 70000 kPa, Liquid, Bellows volumetry	1385
452.5 K, 80000 kPa, Liquid, Bellows volumetry	1391
452.5 K, 90000 kPa, Liquid, Bellows volumetry	1397
452.5 K, 100000 kPa, Liquid, Bellows volumetry	1402
452.5 K, 110000 kPa, Liquid, Bellows volumetry	1408
452.5 K, 120000 kPa, Liquid, Bellows volumetry	1414
452.5 K, 130000 kPa, Liquid, Bellows volumetry	1419
452.5 K, 140000 kPa, Liquid, Bellows volumetry	1423
452.5 K, 150000 kPa, Liquid, Bellows volumetry	1429
452.5 K, 160000 kPa, Liquid, Bellows volumetry	1434
452.5 K, 170000 kPa, Liquid, Bellows volumetry	1439
452.5 K, 180000 kPa, Liquid, Bellows volumetry	1444
452.5 K, 190000 kPa, Liquid, Bellows volumetry	1448
452.5 K, 200000 kPa, Liquid, Bellows volumetry	1453
472.4 K, 10000 kPa, Liquid, Bellows volumetry	1327
472.4 K, 20000 kPa, Liquid, Bellows volumetry	1336
472.4 K, 30000 kPa, Liquid, Bellows volumetry	1344
472.4 K, 40000 kPa, Liquid, Bellows volumetry	1351
472.4 K, 50000 kPa, Liquid, Bellows volumetry	1358
472.4 K, 60000 kPa, Liquid, Bellows volumetry	1364
472.4 K, 70000 kPa, Liquid, Bellows volumetry	1371
472.4 K, 80000 kPa, Liquid, Bellows volumetry	1377
472.4 K, 90000 kPa, Liquid, Bellows volumetry	1383
472.4 K, 100000 kPa, Liquid, Bellows volumetry	1389
472.4 K, 110000 kPa, Liquid, Bellows volumetry	1395
472.4 K, 120000 kPa, Liquid, Bellows volumetry	1400
472.4 K, 130000 kPa, Liquid, Bellows volumetry	1405
472.4 K, 140000 kPa, Liquid, Bellows volumetry	1411
472.4 K, 150000 kPa, Liquid, Bellows volumetry	1416
472.4 K, 160000 kPa, Liquid, Bellows volumetry	1421
472.4 K, 170000 kPa, Liquid, Bellows volumetry	1426
472.4 K, 180000 kPa, Liquid, Bellows volumetry	1431
472.4 K, 190000 kPa, Liquid, Bellows volumetry	1436
472.4 K, 200000 kPa, Liquid, Bellows volumetry	1440
